# pIC50: −log10 of the molar value.
# How the values were obtained:
# [1] = biological target: T1, hVR1 (Homo sapiens, UniProt Q8NER1); test: Calcium uptake assay (FLIPR), inhibition of capsaicin-induced calcium influx; assay type: cell-based
# T1 construct: R710-07 (T-REx host cell line); host or cells: T-REx System cell line, called 'human keratinocyte cell line' and 'HEK 293 cells'
# Procedure: Functional activity of compounds against the VR1 receptor was determined by measuring changes in intracellular calcium in HEK 293 cells expressing hVR1. Compounds were examined for their ability to inhibit agonist-induced calcium influx. Relative levels of [Ca^2+] were monitored in a 96-well format using a calcium-sensitive fluorescence dye and a FLIPR TETRA, Molecular Devices.
# Cells that express high levels of VR1 were obtained by generation of a cell line from human keratinocytes with heterologous expression of VR1 under control of an inducible promoter. Specifically, cells expressing human VR1 under the control of the human cytomegalovirus immediate-early (CMV) promoter and two tetracycline operator 2 (TetO2) sites were made using the T-REx System (Invitrogen, Carlsbad, Calif., USA). Details and methods concerning this system are published (Hum. Gene Ther. 9, pp. 1939-1950, 1998; Annu. Rev. Microbiol. 48, pp. 345-369, 1994; Mol. Biol. 169, pp. 707-'721, 1983). Human VR1 was subcloned into the T-REx System pcDNA5/TO vector (Invitrogen Cat# V1033-20) which was transfected into the T-REx System human keratinocyte cell line (Invitrogen Cat# R710-07) from which a stable cell line was established which expresses VR1 after induction by exposure to tetracycline or doxycycline (Hum. Gene Ther. 9, pp. 1939-1950, 1998; instructions that come with purchase of products noted above). Cells were maintained in a CO2 incubator (5% CO2) at 37° C. in culture medium containing DMEM with phenol red (Mediatech Cat #: 15-017-CV) supplemented with 10% heat-inactivated Fetal Bovine Serum, 5% Penicillin-streptomycin (Mediatech Cat #: 30-002-CI), 5% Glutamax® (L-Alanyl-L-Glutamine, Mediatech Cat #: 25-015-CI), 200 μg/ml hygromycin (Mediatech #:30-240-CR), 0.5 μg/ml blasticidin (Invitrogen #46-1120)).
# For assay preparation, cells expressing human VR1 as described above were plated in 96-well plates (Becton Dickinson [BD] poly-D-lysine coated 96-well plates, cat #356692) at 55,000 cells per well in culture media (described above) that also contained 1 ug/ml doxycycline. Plated cells were then placed in an incubator (5% CO2) and incubated for 20-26 hours at 37° C., until the cells had grown to near confluency. Media was then aspirated from cells and 50 uL of dye-containing buffer (from Molecular Devices FLIPR Calcium 4 Assay kit, cat# R8141) was added to each well. Cells were then left in the dark at room temperature for 1.5-2 hours. Cell plates were then placed in the FLIPR TETRA (Molecular Devices, CA, USA). Test compounds and agonists were added to wells using the liquid handling capability of the FLIPR TETRA. Calcium responses of the cells were monitored by fluorescence readout of dye signal. Test compounds in saline (130 mM NaCl, 17 g/L sucrose, 1.8 g/L glucose, 8.8 mM HEPES, 3 mM KCl, 0.60 mM MgCl, 1.0 mM CaCl2; adjust to pH 7.4 using NaOH; 0.03% BSA added on the day of the experiment), or vehicle control in saline, were pre-incubated at the desired final concentrations in the dark at room temperature for 2 or 30 minutes with cells already containing the above mentioned dye buffer (dye solution was diluted 1:1 in culture wells with saline containing 2× the final concentration of test compound). […] Another agonist was protons via a low pH solution (saline solution described above plus 10 mM citric acid buffered to pH 5.7 with HCl instead of buffering to a neutral pH with NaOH as done for normal saline). Compounds were tested at various concentration ranges, depending upon potency of compound. After the 2 minute or 30 minute compound pre-treatment, treatment solution was then added to cells by adding a volume of treatment solution equal to the pretreatment solution already on the cells.
# [2] = biological target: T1, hVR1; test: Determination of pA2 values against capsaicin stimulation (Ca2+ imaging, Schild analysis); assay type: cell-based
# Procedure: Changes in the fluorescence signal (λex=470-495 nm, λem=515-575 nm) are monitored throughout the experiment before agonist addition and for at least 2 min after agonist addition (enough time for the fluorescence response to reach and then decline from the absolute maximum, agonist-induced signal attained). For each well, final relative fluorescence units (RFUs) are calculated as the difference between the maximum fluorescence signal obtained in the experiment after agonist addition and the signal level seen at baseline before agonist, but after antagonist, addition (the absolute minimum level of fluorescence signal observed in the 10 seconds prior to agonist addition). […] Data are fit to an ideal curve utilizing the 4-parameter sigmoid curve-fit function in GraphPad Prism software (version 4, GraphPad Software, Inc., San Diego, Calif., USA) from which an EC50 value is obtained. […] For each antagonist, at least three concentrations are tested. Dose Ratio values are then used to make a standard Schild plot—log [antagonist concentration] plotted against log [DR−1], see Kenakin reference above for theoretical background and method. A linear regression curve-fit is then performed on these plotted points. […] If these conditions are not met, then the antagonist is rerun in a pA2 assay using different antagonist concentrations until the above conditions are met.
# T1 sequence (Q8NER1 whole entry): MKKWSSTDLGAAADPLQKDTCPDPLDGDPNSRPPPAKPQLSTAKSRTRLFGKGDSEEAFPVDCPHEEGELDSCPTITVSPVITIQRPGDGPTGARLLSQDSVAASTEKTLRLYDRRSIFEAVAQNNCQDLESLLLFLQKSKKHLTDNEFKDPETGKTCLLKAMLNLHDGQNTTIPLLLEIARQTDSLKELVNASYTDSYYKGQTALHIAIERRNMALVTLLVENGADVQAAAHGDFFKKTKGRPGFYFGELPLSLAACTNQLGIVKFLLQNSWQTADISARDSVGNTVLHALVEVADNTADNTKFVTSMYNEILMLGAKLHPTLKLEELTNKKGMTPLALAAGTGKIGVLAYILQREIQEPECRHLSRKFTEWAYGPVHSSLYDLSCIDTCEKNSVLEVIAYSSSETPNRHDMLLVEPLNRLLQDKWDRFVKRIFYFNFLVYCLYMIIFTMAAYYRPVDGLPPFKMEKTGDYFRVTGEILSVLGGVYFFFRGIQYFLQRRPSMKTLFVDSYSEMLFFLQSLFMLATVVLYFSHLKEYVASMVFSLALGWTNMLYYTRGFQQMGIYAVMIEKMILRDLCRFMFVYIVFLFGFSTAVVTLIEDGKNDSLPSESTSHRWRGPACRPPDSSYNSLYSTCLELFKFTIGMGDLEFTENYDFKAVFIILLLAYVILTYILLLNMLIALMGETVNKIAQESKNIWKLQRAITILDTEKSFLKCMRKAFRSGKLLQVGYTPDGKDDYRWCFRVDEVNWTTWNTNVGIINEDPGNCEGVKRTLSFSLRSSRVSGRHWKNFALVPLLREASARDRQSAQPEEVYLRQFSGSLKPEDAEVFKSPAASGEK
SMILES,pIC50 [1],Kb [2],inhibition at 1 µM [1]
"C[C@@H](NC(=O)[C@H]1COc2cc(C(F)(F)F)ccc2O1)c1ccc2[nH]ncc2c1 [Compound 26, (R)-6-Trifluoromethyl-2,3-dihydro-benzo[1,4]dioxine-2-carboxylic acid [(R)-1-(1H-indazol-5-yl)-ethyl]-amide]",7.03,22.5 nM,–
"C[C@@H](NC(=O)[C@@H]1CCc2nc(C(C)(C)C(F)(F)F)ccc2C1)c1cnn2c1OCCC2 [Compound 20, (R)-2-(2,2,2-Trifluoro-1,1-dimethyl-ethyl)-5,6,7,8-tetrahydro-quinoline-6-carboxylic acid [(R)-1-(6,7-dihydro-5H-pyrazolo[5,1-b][1,3]oxazin-3-yl)-ethyl]-amide]",6.51,–,–
"CC(NC(=O)C1CCc2nc(C(C)(C)C(F)(F)F)ccc2C1)c1ccc2[nH]ncc2c1 (stereo not drawn) [Compound 10, 2-(2,2,2-Trifluoro-1,1-dimethyl-ethyl)-5,6,7,8-tetrahydro-quinoline-6-carboxylic acid [1-(1H-indazol-5-yl)-ethyl]-amide]",8.10,4.32 nM,–
"C[C@@H](NC(=O)[C@@H]1COc2cc(C(F)(F)F)ccc2O1)c1ccc2[nH]ncc2c1 [Compound 25, (S)-6-Trifluoromethyl-2,3-dihydro-benzo[1,4]dioxine-2-carboxylic acid 1[(R)-1-(1H-indazol-5-yl)-ethyl]-amide]",6.82,188 nM,–
"O=C(Nc1cnc2c(c1)COCC2)[C@H]1COc2cc(C(F)(F)F)ccc2O1 [Compound 17, (R)-6-Trifluoromethyl-2,3-dihydro-benzo[1,4]dioxine-2-carboxylic acid (7,8-dihydro-5H-pyrano[4,3-b]pyridin-3-yl)-amide]",6.85,–,–
"CC(NC(=O)[C@H]1COc2cc(C(F)(F)F)ccc2O1)c1ccc2[nH]ncc2c1 (stereo partly drawn) [Compound 13, (R)-6-Trifluoromethyl-2,3-dihydro-benzo[1,4]dioxine-2-carboxylic acid [1-(1H-indazol-5-yl)-ethyl]-amide]",7.19,37.4 nM,–
"CC(NC(=O)[C@@H]1COc2cc(C(C)(C)C)ccc2O1)c1ccc2[nH]ncc2c1 (single isomer, unassigned) [Compound 6]",6.99,–,–
"CC(NC(=O)[C@@H]1COc2cc(C(F)(F)F)ccc2O1)c1ccc2[nH]ncc2c1 (stereo partly drawn) [Compound 14, (S)-6-Trifluoromethyl-2,3-dihydro-benzo[1,4]dioxine-2-carboxylic acid [1-(1H-indazol-5-yl)-ethyl]-amide]",6.09,–,54%
"C[C@@H](NC(=O)[C@H]1CCc2nc(C(C)(C)C(F)(F)F)ccc2C1)c1cnn2c1OCCC2 [Compound 22, (S)—N—((R)-1-(6,7-dihydro-5H-pyrazolo[5,1-b][1,3]oxazin-3-yl)ethyl)-2-(1,1,1-trifluoro-2-methylpropan-2-yl)-5,6,7,8-tetrahydroquinoline-6-carboxamide]",7.12,59.5 nM,–
